# Laboratory results as given in patent US7964556B1, “Antimicrobial peptides and use thereof” (Toagosei Co., Ltd, priority 2004, dated 2011).
# Like-named read-outs stand apart in the source and are kept apart here. Where a SMILES comes first, the peptide text is derived from it.
# Experiments:
# Type in all cases: cell-based
# Escherichia coli = tested on: Escherichia coli
# Description: (§1) Regarding the antimicrobial peptide in samples 1 to 14 and the comparative sample 1, the antimicrobial activities (minimum inhibitory concentration: MIC) with respect to gram-negative bacteria (Escherichia coli) and gram-positive bacteria (Staphylococcus aureus) were determined, as described below, by a liquid medium dilution technique using a 96-well microplate. First, a drug (synthesized peptide) solution having a concentration of 40 times of the highest test concentration was prepared using sterile distilled water, and thereafter liquid-bouillon mediums (“NUTRIENT BROTH Dehydrated” manufactured by DIFCO) having peptide concentrations of 200, 100, 50, 25, 12.5, 6.25, 3.13, 1.56 and 0.78 μM were produced respectively. The produced liquid-bouillon mediums including the peptide of each concentration were then fed to the 96-well microplate at 100 μL a time.
# (§2) At the same time, test bacteria cultured for 18 hours at 37° C. on an agar plate (“Muller Hinton Agar” manufactured by DIFCO) were gathered by scratching with a loop, and then suspended in a sterilized physiological saline. Bacterial suspension 5 μL prepared at an equivalent of 2×10^7 cells/mL was respectively inoculated (number of bacteria to be tested: approximately 1×10^6 cells/mL) onto the above-described liquid-bouillon mediums including the peptide of each concentration and fed to each well of the above-described microplate. After inoculation, the microplate was then incubated in an incubator at 37° C., and the presence of bacteria was evaluated based on the turbidity 24 hours later. The minimum drug concentration (peptide concentration), in which an increased in turbidity caused by bacteria was not detected at the time of measurement, was defined as MIC (minimum inhibitory concentration) (unit: μM) in the present embodiment.
# Staphylococcus aureus = conditions: for antimicrobial activities against gram-positive bacteria (S. aureus), in words: summary of Table 2
# Description: as §1, §2
# sheep's erythrocytes = tested on: sheep's erythrocytes
# Description: A test on the hemolytic activity of 2 kinds of synthesized peptides (sample 9 and sample 10) in example 1 was performed and served as indicator of the effects of these peptides on animal cell (erythrocyte). The hemolytic activity test in the present example was performed as follows. Specifically, sample peptides were dissolved in PBS (pH7.4), and thereafter 10 stages of twice diluted strains (sample solutions) with peptide concentration of 400, 200, 100, 50, 25, 12.5, 6.25, 3.13, 1.56 and 0.78 μM were prepared. Here, PBS was used as a control of 0% hemolysis, and PBS containing 0.1% of triton X-100 was used as a control of 100% hemolysis. Erythrocyte of fiber-free sheep's blood was then added to these sample solutions such that the volume ratio (v/v) was 1% of these sample solutions. After adding the above-described red blood cells, the sample solutions were incubated for 1 hour at 37° C., and thereafter the hemolysis was ceased with cold water. Next, centrifugal separation at 3000 rpm was performed for […] at 4° C.
# After centrifugal separation, each supernatant was fed to the 96-well microplate, and absorbency under 540 nm wavelength was determined. The hemolytic rate (%) was then calculated by the following formula based on the results determined: {(Aexp−A0)/A100}×100. […]
# [1] = liquid-bouillon medium (Nutrient Broth), 37° C., turbidity after 24 hours
Compound,Antimicrobial Activities (MIC) E. coli (Escherichia coli; 24 h) [µM],Antimicrobial Activities (MIC) S. aureus (Staphylococcus aureus; 24 h) [µM],"antimicrobial activities against gram-positive bacteria (S. aureus), in words (Staphylococcus aureus)","hemolytic activities, in words (sheep's erythrocytes)",Antimicrobial Activities (MIC) E. coli (Escherichia coli; [1]) [µM],Antimicrobial Activities (MIC) S. aureus (Staphylococcus aureus; [1]) [µM]
"CC[C@H](C)[C@H](NC(=O)[C@H](CCC(N)=O)NC(=O)[C@@H](NC(=O)[C@H](CCCCN)NC(=O)[C@H](CCCCN)NC(=O)[C@H](CCCCN)NC(=O)[C@H](CC(N)=O)NC(=O)[C@@H](NC(=O)[C@@H](NC(=O)[C@H](CCC(N)=O)NC(=O)[C@@H](NC(=O)[C@@H](N)CCCCN)C(C)C)[C@@H](C)CC)[C@@H](C)CC)C(C)C)C(=O)N[C@H](C(=O)N[C@@H](CC(N)=O)C(=O)N[C@@H](CCCCN)C(=O)N[C@@H](CCCCN)C(N)=O)[C@@H](C)CC [Sample 6, KVQIINKKKVQIINKK] (H-KVQIINKKKVQIINKK-NH2)",6.25,1.56,particularly high antimicrobial activities,–,–,–
"CC(C)[C@H](NC(=O)[C@H](C)NC(=O)[C@@H](NC(=O)[C@H](CCCCN)NC(=O)[C@H](CCCCN)NC(=O)[C@@H](NC(=O)[C@H](CCCCN)NC(=O)[C@H](CCCNC(=N)N)NC(=O)[C@H](CCCCN)NC(=O)[C@H](CCCCN)NC(=O)[C@H](CCCCN)NC(=O)[C@@H](N)CCCNC(=N)N)C(C)C)C(C)C)C(=O)N[C@H](C(=O)N[C@@H](CCCNC(=N)N)C(N)=O)C(C)C [Sample 7, RKKKRKVKKVAVVR] (H-RKKKRKVKKVAVVR-NH2)",6.25,3.13,particularly high antimicrobial activities,–,–,–
"CC(C)[C@H](NC(=O)[C@H](C)NC(=O)[C@@H](NC(=O)[C@H](CCCCN)NC(=O)[C@H](CCCCN)NC(=O)[C@@H](NC(=O)[C@H](CCCNC(=N)N)NC(=O)[C@@H](NC(=O)[C@@H](NC(=O)[C@H](C)NC(=O)[C@@H](NC(=O)[C@H](CCCCN)NC(=O)[C@@H](N)CCCCN)C(C)C)C(C)C)C(C)C)[C@@H](C)O)C(C)C)C(=O)N[C@H](C(=O)N[C@@H](CCCNC(=N)N)C(=O)N[C@H](C(N)=O)[C@@H](C)O)C(C)C [Sample 8, KKVAVVRTKKVAVVRT] (H-KKVAVVRTKKVAVVRT-NH2)",50,6.25,particularly high antimicrobial activities,–,–,–
"CC(C)[C@H](NC(=O)[C@H](C)NC(=O)[C@@H](NC(=O)[C@H](CCCCN)NC(=O)[C@H](CCCCN)NC(=O)[C@@H](NC(=O)[C@H](CCCCN)NC(=O)[C@H](CCCNC(=N)N)NC(=O)[C@H](CCCCN)NC(=O)[C@H](CCCCN)NC(=O)[C@H](CCCCN)NC(=O)[C@@H](N)CCCNC(=N)N)C(C)C)C(C)C)C(=O)N[C@H](C(=O)N[C@@H](CCCNC(=N)N)C(=O)N[C@H](C(N)=O)[C@@H](C)O)C(C)C [Sample 10, RKKKRKVKKVAVVRT] (H-RKKKRKVKKVAVVRT-NH2)",12.5,3.13,particularly high antimicrobial activities,significantly low,–,–
"CC[C@H](C)[C@H](NC(=O)[C@H](CCC(N)=O)NC(=O)[C@@H](NC(=O)[C@@H](N)CCCCN)C(C)C)C(=O)N[C@H](C(=O)N[C@@H](CC(N)=O)C(=O)N[C@@H](CCCCN)C(=O)N[C@@H](CCCCN)C(=O)N[C@@H](CC(C)C)C(=O)N[C@@H](CC(=O)O)C(=O)N[C@H](C(=O)N[C@@H](CO)C(=O)N[C@@H](CC(N)=O)C(=O)N[C@@H](CC(C)C)C(=O)N[C@@H](CCSC)C(=O)N[C@@H](Cc1c[nH]c2ccccc12)C(=O)N[C@@H](Cc1c[nH]c2ccccc12)C(=O)N[C@@H](CC(C)C)C(=O)N[C@@H](CC(C)C)C(N)=O)C(C)C)[C@@H](C)CC [Sample 11, KVQIINKKLDVSNLMWWLL] (H-KVQIINKKLDVSNLMWWLL-NH2)",25,12.5,particularly high antimicrobial activities,–,–,–
"CC[C@H](C)[C@H](NC(=O)[C@H](CCC(N)=O)NC(=O)[C@@H](NC(=O)[C@@H](N)CCCCN)C(C)C)C(=O)N[C@H](C(=O)N[C@@H](CC(N)=O)C(=O)N[C@@H](CCCCN)C(=O)N[C@@H](CCCCN)C(=O)N[C@@H](CC(C)C)C(=O)N[C@@H](CCSC)C(=O)N[C@@H](Cc1c[nH]c2ccccc12)C(=O)N[C@@H](Cc1c[nH]c2ccccc12)C(=O)N[C@@H](CC(C)C)C(=O)N[C@@H](CC(C)C)C(N)=O)[C@@H](C)CC [Sample 12, KVQIINKKLMWWLL] (H-KVQIINKKLMWWLL-NH2)",12.5,3.13,particularly high antimicrobial activities,–,–,–
"CC[C@H](C)[C@H](NC(=O)[C@H](CCC(N)=O)NC(=O)[C@@H](NC(=O)[C@H](CCCCN)NC(=O)[C@@H](NC(=O)[C@@H](NC(=O)[C@@H](NC(=O)[C@H](CCCNC(=N)N)NC(=O)[C@H](CCCCN)NC(=O)[C@H](CCCCN)NC(=O)[C@H](CCCNC(=N)N)NC(=O)[C@@H]1CCCN1C(=O)[C@@H]1CCCN1)[C@@H](C)O)C(C)C)C(C)C)C(C)C)C(=O)N[C@H](C(=O)N[C@@H](CC(N)=O)C(=O)N[C@@H](CCCCN)C(=O)N[C@@H](CCCCN)C(N)=O)[C@@H](C)CC [Sample 13, PPRKKRTVVKVQIINKK] (H-PPRKKRTVVKVQIINKK-NH2)",–,–,particularly high antimicrobial activities,–,3.13,0.78
"CC[C@H](C)[C@H](NC(=O)[C@H](CCC(N)=O)NC(=O)[C@@H](NC(=O)[C@H](CCCCN)NC(=O)[C@H](Cc1ccc(O)cc1)NC(=O)[C@@H](NC(=O)[C@@H](NC(=O)[C@H](CCC(N)=O)NC(=O)[C@@H](N)C(C)C)[C@@H](C)CC)C(C)C)C(C)C)C(=O)N[C@H](C(=O)N[C@@H](Cc1ccc(O)cc1)C(=O)N[C@@H](CCCCN)C(N)=O)C(C)C [Sample 14, VQIVYKVQIVYK] (H-VQIVYKVQIVYK-NH2)",50,25,particularly high antimicrobial activities,–,–,–
